The record followed here is ChEMBL document CHEMBL5154721, “Discovery of HDAC6-Selective Inhibitor NN-390 with in Vitro Efficacy in Group 3 Medulloblastoma” (J Med Chem, 2022).

A word on the IC50: it is the concentration at which inhibition is half-maximal.

Assay [1] deals with MV4-11. The assay is described as follows: Induction of apoptosis in human MV4-11 cells assessed as late apoptotic cells at 2 uM after 18 hrs by Annexin V/PI staining based flow cytometric analysis. It is filed as functional. Background: A flow cytometer gives signals particle by particle.
The target of assay [2] is T1, Histone deacetylase 7 (Homo sapiens, UniProt Q8WUI4).
T1 sequence (Q8WUI4 whole entry): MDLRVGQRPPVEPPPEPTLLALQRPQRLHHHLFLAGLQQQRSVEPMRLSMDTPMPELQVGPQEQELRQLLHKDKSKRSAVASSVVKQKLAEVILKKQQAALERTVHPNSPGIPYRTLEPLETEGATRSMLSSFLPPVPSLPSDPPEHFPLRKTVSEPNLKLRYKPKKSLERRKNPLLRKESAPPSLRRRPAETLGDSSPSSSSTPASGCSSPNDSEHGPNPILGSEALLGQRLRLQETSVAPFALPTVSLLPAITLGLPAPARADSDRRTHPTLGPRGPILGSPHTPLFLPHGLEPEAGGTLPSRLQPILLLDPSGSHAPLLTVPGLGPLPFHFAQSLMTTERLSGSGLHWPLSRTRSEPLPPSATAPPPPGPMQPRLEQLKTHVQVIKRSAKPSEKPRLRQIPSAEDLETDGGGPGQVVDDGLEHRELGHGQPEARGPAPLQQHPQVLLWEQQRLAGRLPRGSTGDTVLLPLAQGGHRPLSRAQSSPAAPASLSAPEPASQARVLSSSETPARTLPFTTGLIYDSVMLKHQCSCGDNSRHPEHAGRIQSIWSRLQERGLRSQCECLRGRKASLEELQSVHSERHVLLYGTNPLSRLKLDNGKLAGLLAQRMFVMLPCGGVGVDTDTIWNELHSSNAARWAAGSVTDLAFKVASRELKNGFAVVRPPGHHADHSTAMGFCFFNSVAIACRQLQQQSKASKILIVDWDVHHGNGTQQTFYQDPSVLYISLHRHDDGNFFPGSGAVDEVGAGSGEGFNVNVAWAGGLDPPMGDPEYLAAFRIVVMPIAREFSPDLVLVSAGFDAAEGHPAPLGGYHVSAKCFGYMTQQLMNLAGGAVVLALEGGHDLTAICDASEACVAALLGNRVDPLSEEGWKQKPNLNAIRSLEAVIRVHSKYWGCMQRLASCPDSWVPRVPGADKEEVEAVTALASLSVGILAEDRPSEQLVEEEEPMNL
The assay is described as follows: Inhibition of full length human recombinant HDAC7 expressed in Sf9 baculovirus system using FAM-labeled acetylated peptide as substrate by measuring fluorescence intensity by EMSA method.

Assay [3] has as its system MV4-11. The assay is described as follows: Induction of apoptosis in human MV4-11 cells assessed as viable cells at 0.75 uM after 24 hrs by Annexin V/PI staining based flow cytometric analysis (Rvb=58.28%). It is filed as functional. Particulars: read-out: Activity.
The subject of assay [4] is MV4-11. The assay is described as follows: Induction of apoptosis in human MV4-11 cells assessed as late apoptotic cells at 0.25 uM after 24 hrs by Annexin V/PI staining based flow cytometric analysis (Rvb=8.13%). It is filed as functional.
Assay [5] has as its system MB002. The assay is described as follows: Cytotoxicity against refractory human group 3 SU_MB002 cells. Type of assay: functional, cell-based.
In assay [6] the target is T2, Polyamine deacetylase HDAC10 (Homo sapiens, UniProt Q969S8).
T2 sequence (Q969S8 whole entry): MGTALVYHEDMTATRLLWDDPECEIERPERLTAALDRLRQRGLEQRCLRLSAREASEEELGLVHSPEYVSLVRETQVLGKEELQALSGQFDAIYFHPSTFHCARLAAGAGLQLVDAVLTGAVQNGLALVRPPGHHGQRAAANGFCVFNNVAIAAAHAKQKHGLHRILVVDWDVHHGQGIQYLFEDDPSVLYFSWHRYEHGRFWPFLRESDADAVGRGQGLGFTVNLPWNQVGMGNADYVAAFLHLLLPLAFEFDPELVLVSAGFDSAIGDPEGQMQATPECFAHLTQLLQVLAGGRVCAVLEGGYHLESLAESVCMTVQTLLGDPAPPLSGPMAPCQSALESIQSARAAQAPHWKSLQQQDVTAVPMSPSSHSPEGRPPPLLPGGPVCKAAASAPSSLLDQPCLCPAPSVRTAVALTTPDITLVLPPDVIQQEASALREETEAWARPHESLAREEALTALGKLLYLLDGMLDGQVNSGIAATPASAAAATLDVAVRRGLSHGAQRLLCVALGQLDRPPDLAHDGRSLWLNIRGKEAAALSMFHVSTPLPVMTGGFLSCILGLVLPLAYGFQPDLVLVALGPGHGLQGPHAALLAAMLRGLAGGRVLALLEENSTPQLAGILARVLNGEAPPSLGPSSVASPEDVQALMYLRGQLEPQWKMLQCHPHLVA
The assay is described as follows: Inhibition of full length human recombinant HDAC10 expressed in Sf9 baculovirus system using FAM-labeled acetylated peptide as substrate by measuring fluorescence intensity.

Active and inactive are the calls of the source. The rule behind the calls is not given here. Where only a bound is given, the exact number is not on record here.

Take `CC(C)N(Cc1ccc(C(=O)NO)cc1)S(=O)(=O)c1cc(F)c(F)c(F)c1F`: the Activity in assay [1] was 39%; in assay [4], 9%. The IC50 in assay [2] and in assay [6] was over 5 µM each time. Further, the viability at 0.75 µM in assay [3] turned out to be 85.7%. The outcome in assay [5] was Active.
